Where two headings read alike, the source gives them in different places.
Assay: Single ascending dose study, fasted and fed: safety and non-compartmental plasma PK
Type: in vivo, healthy volunteers (human)
Conditions: for AUC0-inf / Cmax / half-life / Tmax: human, plasma, oral; for Tmax: read-out: Tmax
Method: A single ascending dose (SAD) study of the compound 100 was conducted in healthy volunteers. The compound 100 was administered as monotherapy both with and without food. The safety and pharmacokinetic profile of the single dose of the compound 100 was assessed.
Interim, blinded data were used for Pharmacokinetic (PK) study relating to food effects. With the exception of the 400 mg cohort, eight subjects were studied at each dose (single doses of 100, 200, or 800 mg of the sodium salt of the compound 100, which may be referred to herein as ITMN-191, administered in the fasting state). In the 400 mg cohort, ten subjects received single 400 mg doses of ITMN-191 under both fasted and fed conditions with a 5-day washout period between dosing. In the 100 mg cohort, subjects were sampled within 1 hour before dosing and at 0.5, 1, 1.5, 2, 2.5, 3, 4, 6, 8, 12, 18, 24, 32 and 48 hours after dosing. For subsequent cohorts, subjects were sampled within 1 hour before dosing and at 0.25, 0.5, 1, 1.5, 2, 2.5, 3, 4, 6, 8, 12, 18, 24, and 32 hours after dosing. Nominal (not actual) sampling times were used for the analysis. PK samples were analyzed using liquid chromatography-tandem mass spectrometry (LC/MS/MS with API 4000 mass spectrometer) following solid-phase extraction. The upper and lower limits of quantitation (ULOQ and LLOQ) are 100 and 0.01 ng/mL, respectively.
Pharmacokinetic parameter estimates were calculated using non-compartmental methods (implemented using Microsoft Excel®). Half-lives were determined by visual inspection of the log concentration-time plots to choose the terminal phase (minimum of three detectable observations). Using linear regression of the chosen terminal phase observations, elimination rate constants were calculated as the negative slope of the regression line and half-life as the natural log of 2 divided by the elimination rate constant.
Ten subjects received single 1600 mg doses of ITMN-191 under both fasted and fed conditions with a 5-day washout period between dosing. For each condition, subjects were sampled within 1 hour before dosing and at 0.25, 0.5, 1, 1.5, 2, 2.5, 3, 4, 6, 8, 12, 18, 24, and 32 hours after dosing. Pharmacokinetic parameter estimates were calculated using non-compartmental methods. Half-life (t1/2) was determined by visual inspection of the log concentration-time plots to choose the terminal phase (minimum of three detectable observations). Using linear regression of the chosen terminal phase observations, elimination rate constants were calculated as the negative slope and half-life as the natural log of 2 divided by the elimination rate constant.

CC(C)(C)OC(=O)N[C@H]1CCCCC/C=C\[C@@H]2C[C@@]2(C(=O)NS(=O)(=O)C2CC2)NC(=O)[C@@H]2C[C@@H](OC(=O)N3Cc4cccc(F)c4C3)CN2C1=O [ITMN-191]
fold increase of median AUC0-inf and Cmax (1600 mg fasted versus 800 mg cohort): 3-4 fold | dose linearity of pharmacokinetics based on AUC0-inf (dose range of 100-800 mg): linear | AUC0-inf (100 mg, median, single 100 mg dose, fasting state, N=8, read-out: AUC0-inf): 20.4 ng·h/mL | Cmax (100 mg, median, single 100 mg dose, fasting state, N=8, read-out: Cmax): 14.7 ng/mL | half-life (100 mg, median, single 100 mg dose, fasting state, N=8, read-out: T1/2 (converted)): 1.78 h | Tmax (100 mg, median, single 100 mg dose, fasting state, N=8): 0.75 h | AUC0-inf (200 mg, median, single 200 mg dose, fasting state, N=8, read-out: AUC0-inf): 36.8 ng·h/mL | Cmax (200 mg, median, single 200 mg dose, fasting state, N=8, read-out: Cmax): 30.2 ng/mL | half-life (200 mg, median, single 200 mg dose, fasting state, N=8, read-out: T1/2 (converted)): 1.49 h | Tmax (200 mg, median, single 200 mg dose, fasting state, N=8): 0.75 h | AUC0-inf (400 mg, median, single 400 mg dose (Fasted), N=10, read-out: AUC0-inf): 81 ng·h/mL | Cmax (400 mg, median, single 400 mg dose (Fasted), N=10, read-out: Cmax): 63.8 ng/mL | half-life (400 mg, median, single 400 mg dose (Fasted), N=10, read-out: T1/2 (converted)): 1.53 h | Tmax (400 mg, median, single 400 mg dose (Fasted), N=10): 1 h | AUC0-inf (400 mg, median, single 400 mg dose (Fed), N=10, read-out: AUC0-inf): 113 ng·h/mL | Cmax (400 mg, median, single 400 mg dose (Fed), N=10, read-out: Cmax): 56.6 ng/mL | half-life (400 mg, median, single 400 mg dose (Fed), N=10, read-out: T1/2 (converted)): 1.74 h | Tmax (400 mg, median, single 400 mg dose (Fed), N=10): 2.5 h | AUC0-inf (800 mg, 800 mg cohort, fasting, single dose, read-out: median AUC0-inf): 194 ng·h/mL | Cmax (800 mg, 800 mg cohort, fasting, single dose, read-out: median Cmax): 216 ng/mL | AUC0-inf (800 mg, median, single 800 mg dose, fasting state, N=8, read-out: AUC0-inf): 194 ng·h/mL | Cmax (800 mg, median, single 800 mg dose, fasting state, N=8, read-out: Cmax): 216 ng/mL | half-life (800 mg, median, single 800 mg dose, fasting state, N=8, read-out: T1/2 (converted)): 1.91 h | Tmax (800 mg, median, single 800 mg dose, fasting state, N=8): 0.5 h | AUC0-inf (1600 mg, 1600 mg fasted cohort, single dose, read-out: median AUC0-inf): 737 ng·h/mL | Cmax (1600 mg, 1600 mg fasted cohort, single dose, read-out: median Cmax): 685 ng/mL | AUC0-inf (1600 mg, Geometric Mean of 10 subjects, single 1600 mg dose, Fasted, read-out: AUC0-inf): 667 ng·h/mL | Cmax (1600 mg, Geometric Mean of 10 subjects, single 1600 mg dose, Fasted, read-out: Cmax): 538 ng/mL | half-life (1600 mg, Geometric Mean of 10 subjects, single 1600 mg dose, Fasted, read-out: t½ (converted)): 2.38 h | AUC0-inf (1600 mg, Geometric Mean of 10 subjects, single 1600 mg dose, Fed, read-out: AUC0-inf): 1010 ng·h/mL | Cmax (1600 mg, Geometric Mean of 10 subjects, single 1600 mg dose, Fed, read-out: Cmax): 422 ng/mL | half-life (1600 mg, Geometric Mean of 10 subjects, single 1600 mg dose, Fed, read-out: t½ (converted)): 2.5 h | AUC0-inf (1600 mg, Harmonic Mean of 10 subjects, single 1600 mg dose, Fasted, read-out: AUC0-inf): 639 ng·h/mL | Cmax (1600 mg, Harmonic Mean of 10 subjects, single 1600 mg dose, Fasted, read-out: Cmax): 453 ng/mL | half-life (1600 mg, Harmonic Mean of 10 subjects, single 1600 mg dose, Fasted, read-out: t½ (converted)): 2.29 h
